From patent publication US10226471B2, “Modified-release dosage forms of 5-HT2C agonists useful for weight management” (Arena Pharmaceuticals, Inc., priority 2010, dated 2019)
Where two headings read alike, the source gives them in different places.

Columns and labels:
[1] = Solubility of salts in water (UPLC or gravimetry); type: physicochemical
Protocol: Acquity ultra performance liquid chromatography (UPLC) from Waters was used for solubility and stoichiometry determination. […] UPLC was equipped with Acquity PDA detector. UPLC mobile phase solvent A was 0.1% TFA in DI-water, solvent B was 0.1% TFA in acetonitrile.
Column temperature was 40±5° C. Acquity UPLC® HSS T3 1.8 μm, 2.1×50 mm column was used.
A known amount of sample was dissolved in water and analyzed by UPLC.

[2] = Biopharmaceutics Classification System classification; type: physicochemical
Description: An immediate-release, film-coated 10-mg tablet was developed for the phase 3 clinical trials and commercialization of Compound 1 (Example 5).

[3] = Dynamic moisture-sorption (DMS); type: physicochemical; conditions: for hygroscopicity by DMS: isotherm 25° C.; for DMS weight gain at 90% RH: out to and including the 90% RH hold at 25° C.
Protocol: Dynamic moisture-sorption (DMS) studies were conducted using a dynamic moisture-sorption analyzer, VTI Corporation, SGA-100, equipment #0228. Samples were prepared for DMS analysis by placing 5 mg to 20 mg of a sample in a tared sample holder. The sample was placed on the hang-down wire of the VTI balance. A drying step was run, typically at 40° C. and 0.5-1% RH for 1-2 h. The isotherm temperature is 25° C. Defined % RH holds typically ranged from 10% RH to 90% RH or 95% RH, with intervals of 10 to 20% RH. A % weight change smaller than 0.010% over a specified number of minutes (typically 10-20), or up to 2 h, whichever occurs first, is required before continuing to the next % RH hold. The water content of the sample equilibrated as described above was determined at each % RH hold.

[4] = Deliquescence relative humidity (DRH) by water activity meter; type: physicochemical; conditions: saturated aqueous solution with excess solid, 25° C.
[5] = Appearance on exposure to light; type: physicochemical; conditions: solid removed from the slurry
[6] = 26-day body weight study, oral gavage versus osmotic minipump; type: in vivo, male Sprague Dawley rats
Protocol: 30 male Sprague Dawley rats weighing 275-320 g were singly housed and maintained on a 12 h:12 h light-dark cycle (lights on at 23:00 h). Food and water were available ad libitum at all times except during the first day after pump implantation (see below). All rats were habituated to injection and handling procedures for one week prior to study onset.
For the purposes of dose calculation each rat was assumed to weigh 320 g at the start of the study. Rats receiving Compound 1 hydrochloride salt PO were given a fixed daily dose of 7.68 mg, whereas rats in the pump group received a total fixed daily dose of 4.84 mg (for calculations see Example 2.1).
Osmotic minipumps (Alzet® model 2ML4, Durect Corp, CA) were filled with either vehicle (0.9% saline, n=20), or Compound 1 hydrochloride salt solutions and submerged overnight in a 0.9% saline solution to reach equilibrium. […] All subjects were then implanted with the minipumps. Briefly, under isoflourane anaesthesia the nape of the neck was shaved, a mid-scapular incision was made and a subcutaneous pocket was created for the minipump. A minipump was then inserted into the pocket and the incision was closed using surgical staples. Rats were then returned to homecage for recovery. Rats in VEH and PO groups received pumps primed with vehicle; whereas rats in the PUMP group received Compound 1 hydrochloride salt-filled pumps. Because steady state levels of Compound 1 in vivo in the PUMP group were not predicted to be reached until at least 24 h post-implantation, food was removed from all rats for approximately one day after surgery. At 10:30 h the next day (Day 1) and for all subsequent days, food and body weight was measured for all subjects, and all subjects were administered either saline (for VEH and PUMP groups), or Compound 1 hydrochloride salt (PO group) via oral gavage. Food intake and body weight were measured for a total of 26 days.

[7] = chronic twice-daily oral administration, high fat diet, 4-week study; cited from earlier work
[8] = water, thermodynamic from solid, by UPLC, read-out: solubility in water

## C[C@H]1CNCCc2ccc(Cl)cc21.C[C@H]1CNCCc2ccc(Cl)cc21.O=S(=O)(O)c1cccc2c(S(=O)(=O)O)cccc12 [Compound 1 heminapadisilate salt]
[1]; by UPLC
  solubility in water: 2370 µg/mL

## C[C@H]1CNCCc2ccc(Cl)cc21.C[C@H]1CNCCc2ccc(Cl)cc21.Cl.Cl.O
[2]
  Biopharmaceutics Classification System solubility class: highly soluble
[1]; pH range of 1 to 7
  solubility: exceeds 400 mg/mL

## C[C@H]1CNCCc2ccc(Cl)cc21.O=C(O)/C=C/C(=O)O [Compound 1 fumarate salt]
[3]; listed as Compound 1 Fumarate Salt, Form I, fumarate salt
  hygroscopicity by DMS: FIG. 13: non-hygroscopic up to 90% RH
[3]; listed as Compound 1 fumarate salt, Form I, fumarate salt
  hygroscopicity by DMS: non-hygroscopic
[1]; [8]
  solubility: 4800 µg/mL
[4]
  DRH (deliquescence relative humidity): 99 % RH

## C[C@H]1CNCCc2ccc(Cl)cc21.I [Compound 1 hydroiodide salt]
[3]; Form I, hydroiodide salt
  hygroscopicity by DMS: FIG. 7: non-hygroscopic
[3]; hydroiodide salt
  hygroscopicity by DMS: non-hygroscopic
[1]; water, thermodynamic from solid, 27° C., by gravimetry (confirmed by UPLC), read-out: solubility in water
  solubility: 5500 µg/mL
[4]
  DRH (deliquescence relative humidity): 99 % RH
[5]
  colour change on exposure to light: did yellow noticeably within hours when exposed to light

## C[C@H]1CNCCc2ccc(Cl)cc21.Cl [Compound 1 hydrochloride salt]
[6]; 26 days, p=0.0501, slopes differ p<0.01
  body weight gain, PUMP group compared to PO group: lower weight gain in the PUMP group than in the PO group
[6]; oral gavage once daily, 24 mg/kg/day (fixed 7.68 mg)
  body weight gain over 26 days compared to saline: significantly decreased
[6]; osmotic minipump, 15.1 mg/kg/day (fixed 4.84 mg)
  body weight gain over 26 days compared to saline: significantly decreased
[7]
  food intake and body weight gain: dose-dependent reductions in food intake and body weight gain

## C[C@H]1CNCCc2ccc(Cl)cc21.C[C@H]1CNCCc2ccc(Cl)cc21.O.O=C(O)c1cc2ccccc2c(Cc2c(O)c(C(=O)O)cc3ccccc23)c1O [Compound 1 hemipamoate salt hydrate]
[3]
  hygroscopicity by DMS: slightly hygroscopic
[3]; listed as Compound 1 Hemipamoate Salt Hydrate, Form I, hydrate
  DMS weight gain at 90% RH: FIG. 41: ~1.472% weight gain at about 90% RH
[3]; listed as Compound 1 hemipamoate salt hydrate, Form I, hydrate
  DMS weight gain at 90% RH: about 1.472%
[1]; by UPLC
  solubility in water: 24 µg/mL

## C[C@H]1CNCCc2ccc(Cl)cc21.O=C(O)/C=C\C(=O)O [Compound 1 maleate salt]
[3]
  hygroscopicity by DMS: not hygroscopic
[3]; maleate salt
  DMS weight gain at 90% RH: 0.15%
[1]; [8]
  solubility: 33000 µg/mL
[4]
  DRH (deliquescence relative humidity): 99 % RH
